How the values were obtained:
[1] = test system: human B cell lymphoma cell line (Toledo); assay: Macrophage phagocytosis assay with VPD450-labeled Toledo cells (flow cytometry); assay type: cell-based; settings: two hours co-culture, FIG. 1
Description: Heparinized whole blood was obtained from normal healthy human donors (Biological Specialty Corporation) and informed consent was obtained from all donors. Peripheral blood mononuclear cells (PBMCs) were isolated over Ficoll-Paque Plus density gradient (GE Healthcare) and CD14+ monocytes were isolated from PBMCs by positive selection using CD14 antibody-coated MicroBead separation (Miltenyi Biotec). Monocytes were differentiated into macrophages by culturing for seven days in X-Vivo-15 media (Lonza) supplemented with M-CSF (PeproTech), at which point paclitaxel was added to the macrophage culture for an additional six days. On the day of the phagocytosis assay, macrophages were co-cultured with violet proliferation dye 450 (VPD450)-labeled human B cell lymphoma cell line (Toledo) in the presence of 1 μM human SIRPαFc (IgV domain of human SIRPα variant 2 fused with IgG1 Fc), 1 μM control Fc [human IgG1 Fc region (hinge-CH2-CH3)] or nothing (no treatment, NT) for two hours. Phagocytosis was assessed as % VPD450+ cells of live, single CD14+CD11b+ macrophages by flow cytometry. Results are shown in FIG. 1 and are duplicates from a single experiment.

human CD47 (human) = human CD47 (human) (UniProt Q08722); assay: cell-based or functional assay
Sequence of UniProt Q08722 (Q08722 19-323): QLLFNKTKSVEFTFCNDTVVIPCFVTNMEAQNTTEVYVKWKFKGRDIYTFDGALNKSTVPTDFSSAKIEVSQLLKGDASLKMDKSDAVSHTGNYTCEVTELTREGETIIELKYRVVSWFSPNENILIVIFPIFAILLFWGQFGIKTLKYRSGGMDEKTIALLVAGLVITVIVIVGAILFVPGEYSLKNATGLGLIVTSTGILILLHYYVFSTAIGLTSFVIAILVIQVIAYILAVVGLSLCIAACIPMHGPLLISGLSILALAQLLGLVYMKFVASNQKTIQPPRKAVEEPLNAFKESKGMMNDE

% phagocytosis (% VPD450+ cells of live, single CD14+CD11b+ macrophages) of Toledo cells, 1 µM SIRPαFc, macrophages cultured in paclitaxel (human CD47 (human)) [%] | % phagocytosis (% VPD450+ cells of live, single CD14+CD11b+ macrophages) of Toledo cells, 1 µM SIRPαFc, macrophages not cultured in paclitaxel (human CD47 (human)) [%] | Substance | % phagocytosis (% VPD450+ cells of live, single CD14+CD11b+ macrophages) ([1]; 1 μM SIRPαFc, "no treatment" macrophages (not cultured in paclitaxel)) | phagocytosis of the VPD450-labeled B cell lymphoma cells (in words) ([1]; 1 μM protein)
 |  | SIRPαFc: IgV domain of human SIRPα variant 2 fused with IgG1 Fc | around 9% | substantial phagocytosis
15 | 9 | human SIRPαFc (IgV domain of human SIRPα variant 2 fused with IgG1 Fc) (Fc fusion) |  | 
